# Values joined by “and” are separate entries in the source; they are usually repeats but may differ in a detail not shown here. Equal entries are not always repeated. Toxic doses and inconclusive results are not listed.
# Test system: BDF1 mice, P388 leukemia ip, median survival T/C
# Test: NCI In Vivo Anticancer Drug Screen. Data for tumor model P388 Leukemia (intraperitoneal) in B6D2F1 (BDF1) mice
# Settings: endpoint: median survival time, higher = longer survival
# Summary of the method: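 T/C = treated-group survival ÷ vehicle-control survival; tumour transplanted into mice before dosing.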
# [1] = dose: 100.0 mg/kg/injection, schedule: Q01DX001 (ip), vehicle: Klucel (hydroxypropylcellulose) (HPC)
# [2] = dose: 200.0 mg/kg/injection, schedule: Q01DX001 (ip), vehicle: Klucel (hydroxypropylcellulose) (HPC)
# [3] = dose: 400.0 mg/kg/injection, schedule: Q01DX001 (ip), vehicle: Klucel (hydroxypropylcellulose) (HPC)
# [4] = dose: 25.0 mg/kg/injection, schedule: Q04DX003 (ip), vehicle: water
# [5] = dose: 50.0 mg/kg/injection, schedule: Q04DX003 (ip), vehicle: water
# [6] = dose: 100.0 mg/kg/injection, schedule: Q04DX003 (ip), vehicle: water
# [7] = dose: 25.0 mg/kg/injection, schedule: Q01DX009 (ip), vehicle: saline with Tween-80
# [8] = dose: 50.0 mg/kg/injection, schedule: Q01DX009 (ip), vehicle: saline with Tween-80
# [9] = dose: 100.0 mg/kg/injection, schedule: Q01DX009 (ip), vehicle: saline with Tween-80
# [10] = dose: 50.0 mg/kg/injection, schedule: Q04DX003 (ip), vehicle: Klucel (hydroxypropylcellulose) (HPC)
# [11] = dose: 100.0 mg/kg/injection, schedule: Q04DX003 (ip), vehicle: saline sonified
# [12] = dose: 100.0 mg/kg/injection, schedule: Q01DX009 (ip), vehicle: Klucel (hydroxypropylcellulose) (HPC)
# [13] = dose: 200.0 mg/kg/injection, schedule: Q01DX009 (ip), vehicle: Klucel (hydroxypropylcellulose) (HPC)
# [14] = dose: 100.0 mg/kg/injection, schedule: Q04DX003 (ip), vehicle: Klucel (hydroxypropylcellulose) (HPC)
# [15] = dose: 200.0 mg/kg/injection, schedule: Q04DX003 (ip), vehicle: Klucel (hydroxypropylcellulose) (HPC)
smiles,measurement,setting,value
C[C@@H](O)[C@@H](O)c1cnc2nc(N)[nH]c(=O)c2n1,T/C,"dose: 50.0 mg/kg/injection, schedule: Q01DX005 (ip), vehicle: saline with Tween-80",100 % of control
same,T/C,"dose: 100.0 mg/kg/injection, schedule: Q01DX005 (ip), vehicle: saline with Tween-80",91 % of control
same,T/C,"dose: 200.0 mg/kg/injection, schedule: Q01DX005 (ip), vehicle: saline with Tween-80",115 % of control
CCN1C(=O)CN=C(c2ccccn2)c2cc(Cl)ccc21,T/C,[1],90 % of control
same,T/C,[2],104 % of control
same,T/C,[3],95 % of control
C=CC[n+]1ccc(/C=N\NC(N)=S)c2ccccc21,T/C,"dose: 6.25 mg/kg/injection, schedule: Q01DX009 (ip), vehicle: saline",111 % of control
same,T/C,"dose: 12.5 mg/kg/injection, schedule: Q01DX009 (ip), vehicle: saline",101 % of control
same,T/C,"dose: 25.0 mg/kg/injection, schedule: Q01DX009 (ip), vehicle: saline",106 % of control
CCN1CC1 (tested in a mixture with another compound),T/C,"dose: 0.14 mg/kg/injection, schedule: Q01DX009 (ip), vehicle: saline",95 % of control
same,T/C,"dose: 0.29 mg/kg/injection, schedule: Q01DX009 (ip), vehicle: saline",86 % of control
same,T/C,"dose: 0.58 mg/kg/injection, schedule: Q01DX009 (ip), vehicle: saline",90 % of control
same,T/C,"dose: 1.17 mg/kg/injection, schedule: Q01DX009 (ip), vehicle: saline",120 % of control
same,T/C,"dose: 2.34 mg/kg/injection, schedule: Q01DX009 (ip), vehicle: saline",120 % of control
COc1cccc(CN2CCCNCC2)c1,T/C,"dose: 6.25 mg/kg/injection, schedule: Q04DX003 (ip), vehicle: water",92 % of control
same,T/C,"dose: 12.5 mg/kg/injection, schedule: Q04DX003 (ip), vehicle: water",93 % of control
same,T/C,[4],93 % of control
same,T/C,[5],112 % of control
same,T/C,[6],89 % of control
CCOC(=O)Cn1c(=S)sc2ccccc21,T/C,[7],114 % of control
same,T/C,[8],98 % of control and 114 % of control
same,T/C,[9],95 % of control and 120 % of control
same,T/C,"dose: 200.0 mg/kg/injection, schedule: Q01DX009 (ip), vehicle: saline with Tween-80",93 % of control and 100 % of control
CC(O)C#CC(C)O (stereo unspecified),T/C,"dose: 12.5 mg/kg/injection, schedule: Q01DX009 (ip), vehicle: Klucel (hydroxypropylcellulose) (HPC)",91 % of control
same,T/C,"dose: 12.5 mg/kg/injection, schedule: Q04DX003 (ip), vehicle: Klucel (hydroxypropylcellulose) (HPC)",118 % of control
same,T/C,"dose: 25.0 mg/kg/injection, schedule: Q01DX009 (ip), vehicle: Klucel (hydroxypropylcellulose) (HPC)",91 % of control
same,T/C,"dose: 25.0 mg/kg/injection, schedule: Q04DX003 (ip), vehicle: Klucel (hydroxypropylcellulose) (HPC)",104 % of control
same,T/C,"dose: 50.0 mg/kg/injection, schedule: Q01DX009 (ip), vehicle: Klucel (hydroxypropylcellulose) (HPC)",95 % of control
same,T/C,[10],109 % of control
c1ccc2nc(-c3cc4ccccc4s3)ccc2c1,T/C,[11],104 % of control
same,T/C,"dose: 200.0 mg/kg/injection, schedule: Q04DX003 (ip), vehicle: saline sonified",95 % of control
same,T/C,"dose: 400.0 mg/kg/injection, schedule: Q04DX003 (ip), vehicle: saline sonified",118 % of control
COc1ccc(C2c3cc4c(c(OC)c3CC(CO)C2C(=O)O)OCO4)cc1OC (stereo unspecified),T/C,"dose: 9.38 mg/kg/injection, schedule: Q01DX010 (ip), vehicle: water",95 % of control
same,T/C,"dose: 18.75 mg/kg/injection, schedule: Q01DX010 (ip), vehicle: water",90 % of control
same,T/C,"dose: 37.5 mg/kg/injection, schedule: Q01DX010 (ip), vehicle: water",90 % of control
same,T/C,"dose: 50.0 mg/kg/injection, schedule: Q01DX001 (ip), vehicle: water",110 % of control
same,T/C,"dose: 75.0 mg/kg/injection, schedule: Q01DX010 (ip), vehicle: water",110 % of control
same,T/C,"dose: 100.0 mg/kg/injection, schedule: Q01DX001 (ip), vehicle: water",100 % of control
same,T/C,"dose: 150.0 mg/kg/injection, schedule: Q01DX010 (ip), vehicle: water",115 % of control
same,T/C,"dose: 200.0 mg/kg/injection, schedule: Q01DX001 (ip), vehicle: water",110 % of control
same,T/C,"dose: 400.0 mg/kg/injection, schedule: Q01DX001 (ip), vehicle: water",110 % of control
CC1(c2ccc(Cl)s2)C(=O)N(Cl)C(=O)N1Cl (stereo unspecified),T/C,"dose: 6.25 mg/kg/injection, schedule: Q01DX009 (ip), vehicle: saline with Tween-80",112 % of control
same,T/C,"dose: 12.5 mg/kg/injection, schedule: Q01DX009 (ip), vehicle: saline with Tween-80",103 % of control and 106 % of control
same,T/C,[7],106 % of control and 110 % of control
same,T/C,[4],108 % of control
same,T/C,[8],104 % of control and 120 % of control (2×)
same,T/C,[5],95 % of control
same,T/C,[9],95 % of control and 115 % of control
same,T/C,[6],102 % of control
BrC1(Br)CC1(c1ccccc1)c1ccccc1,T/C,[12],110 % of control
same,T/C,[13],110 % of control
same,T/C,"dose: 400.0 mg/kg/injection, schedule: Q01DX009 (ip), vehicle: Klucel (hydroxypropylcellulose) (HPC)",105 % of control
NC(=S)N/N=C/c1c[nH]c2ccccc12,T/C,[14],100 % of control
same,T/C,[15],113 % of control
same,T/C,"dose: 400.0 mg/kg/injection, schedule: Q04DX003 (ip), vehicle: Klucel (hydroxypropylcellulose) (HPC)",104 % of control
COc1cc(NS(C)(=O)=O)ccc1N,T/C,[12],100 % of control
same,T/C,[14],100 % of control
same,T/C,[13],90 % of control
O=C(NCC(O)CCl)c1ccc([N+](=O)[O-])cc1 (stereo unspecified),T/C,[1],100 % of control
same,T/C,[2],100 % of control
same,T/C,[3],110 % of control
CS(C)=O.CS(C)=O.[Cl][Sn]([Cl])([Cl])[Cl],T/C,"dose: 37.5 mg/kg/injection, schedule: Q01DX009 (ip), vehicle: Klucel (hydroxypropylcellulose) (HPC)",105 % of control
same,T/C,"dose: 75.0 mg/kg/injection, schedule: Q01DX009 (ip), vehicle: Klucel (hydroxypropylcellulose) (HPC)",100 % of control
same,T/C,[14],104 % of control
same,T/C,"dose: 150.0 mg/kg/injection, schedule: Q01DX009 (ip), vehicle: Klucel (hydroxypropylcellulose) (HPC)",100 % of control
same,T/C,[15],90 % of control
Nc1ncnc2nc(-c3ccc(Br)cc3)[nH]c12,T/C,"dose: 100.0 mg/kg/injection, schedule: Q01DX001 (ip), vehicle: saline with Tween-80",94 % of control
same,T/C,"dose: 200.0 mg/kg/injection, schedule: Q01DX001 (ip), vehicle: saline with Tween-80",106 % of control
O=C(O)c1sccc1-c1cccc2ccccc12,T/C,"dose: 50.0 mg/kg/injection, schedule: Q01DX001 (ip), vehicle: saline",104 % of control
same,T/C,"dose: 100.0 mg/kg/injection, schedule: Q01DX001 (ip), vehicle: saline",100 % of control
same,T/C,"dose: 200.0 mg/kg/injection, schedule: Q01DX001 (ip), vehicle: saline",95 % of control
Cc1ccc(S(=O)(=O)OCCN(CCOS(=O)(=O)c2ccc(C)cc2)c2ccc(F)cc2)cc1,T/C,"dose: 29.3 mg/kg/injection, schedule: Q01DX009 (ip), vehicle: other",190 % of control
same,T/C,"dose: 44.0 mg/kg/injection, schedule: Q01DX009 (ip), vehicle: other",213 % of control
same,T/C,"dose: 66.0 mg/kg/injection, schedule: Q01DX009 (ip), vehicle: other",245 % of control and 272 % of control
same,T/C,"dose: 66.0 mg/kg/injection, schedule: Q04DX003 (ip), vehicle: saline sonified",105 % of control
same,T/C,[11],100 % of control
same,T/C,"dose: 150.0 mg/kg/injection, schedule: Q04DX003 (ip), vehicle: saline sonified",105 % of control
same,T/C,"dose: 200.0 mg/kg/injection, schedule: Q01DX009 (ip), vehicle: other",113 % of control
same,T/C,"dose: 200.0 mg/kg/injection, schedule: Q04DX003 (ip), vehicle: other",154 % of control
same,T/C,"dose: 400.0 mg/kg/injection, schedule: Q04DX003 (ip), vehicle: other",150 % of control
CC(=O)NN(c1ccccc1)c1ccccc1,T/C,[10],112 % of control
same,T/C,[14],91 % of control
same,T/C,[15],108 % of control
O=C(/C=C(\Cl)C(=O)NO)NO,T/C,"dose: 11.0 mg/kg/injection, schedule: Q01DX009 (ip), vehicle: saline",103 % of control
same,T/C,"dose: 16.0 mg/kg/injection, schedule: Q01DX009 (ip), vehicle: saline",107 % of control
same,T/C,"dose: 100.0 mg/kg/injection, schedule: Q01DX009 (ip), vehicle: saline",154 % of control

# Reference: PubChem BioAssay AID328 (DTP/NCI, 2004)
